Assay results: publication PMC7239840, “A traffic light enzyme: acetate binding reversibly switches chlorite dismutase from a red- to a green-colored heme protein” (Journal of Biological Inorganic Chemistry, 2020)
One block for each compound: values may come before it.

What was measured:
[1] = target: T1, chlorite dismutase (AoCld) (Azospira oryzae, UniProt E2DI02); assay: UV-visible equilibrium binding titration (Soret band), pH […]; EPR with […] hyperfine splitting; design: recombinant, N-terminal His6 tag
T1 sequence (E2DI02 35-282): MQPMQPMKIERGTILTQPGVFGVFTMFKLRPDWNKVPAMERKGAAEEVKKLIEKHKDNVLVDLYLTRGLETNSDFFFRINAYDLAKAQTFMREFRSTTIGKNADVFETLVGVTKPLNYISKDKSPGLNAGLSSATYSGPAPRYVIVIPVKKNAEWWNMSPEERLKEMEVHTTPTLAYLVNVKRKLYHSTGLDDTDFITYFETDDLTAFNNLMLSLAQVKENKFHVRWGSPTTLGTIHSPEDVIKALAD

[2] = target: T1, chlorite dismutase (AoCld); assay: biochemical
[3] = target: T1, chlorite dismutase (AoCld); assay: UV-visible equilibrium binding titration (Soret band), pH […]; EPR low-spin adduct; design: recombinant, N-terminal His6 tag
[4] = target: T2, chlorite dismutase (AoCld) R183A (Azospira oryzae, UniProt E2DI02, R217A); assay: ligand binding to the R183A mutant (Fig. S7)
T2 construct: recombinant, N-terminal His6 tag
T2 sequence (E2DI02 35-282, stated change not applied): as the sequence (E2DI02 35-282) above

Structure (SMILES): F [F^−, fluoride]
- Kd [1]: 15.6 ± 1.9 mM

- Kd [2]: 17.5 ± 0.5 mM
Structure (SMILES): CC(=O)O [Ac, acetate]

Structure (SMILES): c1c[nH]cn1 [Im, imidazole]
- Kd [3]: 0.0105 ± 0.0024 mM
- ligand binding to the R183A mutant (Fig. S7) [4]: Mutagenesis of Arg183 to Ala results in the complete loss of affinity for fluoride and acetate, but not for imidazole
